For data set [1], the system named is human breast cancer cell line (MCF-7). The data set can be described thus: Anticancer activity against human breast cancer cell line MCF-7. Format: cell-based.
The subject of data set [2] is adeno carcinomic human alveolar basal epithelial cell line (A-549). The data set can be described thus: Anticancer activity against human alveolar basal epithelial cell line A-549. Format: cell-based.

Where two headings read alike, the source gives them in different places.

One may read the IC50 as the point on the concentration scale where inhibition reaches its midpoint. Read a low IC50 as greater potency. Regarding “5-(3-Hydroxy-4-methoxyphenyl)-1,3-dimethylpyrimido[4,5-d]pyrimidine-2,4,7(1H,3H,8H)-trione [Compound 4d]”, the IC50 in data set [1] came out at 0.01 µM; in data set [2] it was 0.186 µM.
In general, melting point refers to the temperature of the solid-liquid transition. On to `O=c1nc(-c2cccc(OCc3ccccc3)c2)c2c(=O)[nH]c(=O)[nH]c2[nH]1` [Compound 4a, 5-(3-(Benzyloxy)phenyl)pyrimido[4,5-d]pyrimidine-2,4,7(1H,3H,8H)-trione], for which the melting point lay in the range of 186 to 188 °C. For the same compound, in data set [1] (MCF7), the IC50 came out at 0.663 µM. In addition, the concentration for half-maximal inhibition (IC50) in data set [2] (A549) is 0.518 µM.
The like results for `O=c1nc(-c2ccc(OCc3ccccc3)cc2)c2c(=O)[nH]c(=O)[nH]c2[nH]1` [Compound 4b, 5-(4-(Benzyloxy)phenyl)pyrimido[4,5-d]pyrimidine-2,4,7(1H,3H,8H)-trione] were, in that order, 142 to 144 °C, 0.038 µM and 0.082 µM.
In the same order, the values of `COc1ccc(-c2nc(=O)[nH]c3[nH]c(=O)[nH]c(=O)c23)cc1O` [Compound 4c, 5-(3-Hydroxy-4-methoxyphenyl)pyrimido[4,5-d]pyrimidine-2,4,7(1H,3H,8H)-trione] are 272 to 274 °C, 0.295 µM and 0.461 µM.

Values taken from patent US11932649B1, “5-(3-substituted phenyl)-pyrimido[4,5-d]pyrimidine-2,4,7(1H,3H,8H)-trione derivatives as anticancer agents” (KING FAISAL UNIVERISTY, priority 2023, dated 2024).
